Residues, ends and D or L forms follow the SMILES beside them.
Assays:
FGR SH2 domain = biological target: T1, FGR SH2 domain (Homo sapiens, UniProt P09769); test: FP saturation binding assay; conditions: Protein FGR, high-confidence ErbB interactions, mean over replicate hits
T1 construct: 93 SH2 and 2 PTB domain-containing constructs; 6X His; thioredoxin; made in house; host or cells: E. coli BL21(DE3)pLysS
In short: (§1)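 Rhodamine-labeled phosphopeptides (10 nM final) titrated with SH2 domain protein (0.002–10 µM, 12 points) in 20 mM HEPES, 100 mM KCl, 0.1% Tween-20, 5 mM DTT, pH 7.8; 20 min, room temperature, dark. FP read at 530/555 nm; KD fitted by nonlinear regression after thioredoxin background correction and outlier removal.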

[1] = biological target: PLCG2-NC tandem SH2 domains (Homo sapiens, UniProt P16885); test: FP saturation binding assay
Sequence of PLCG2-NC tandem SH2 domains (P16885 532-735 limits assumed): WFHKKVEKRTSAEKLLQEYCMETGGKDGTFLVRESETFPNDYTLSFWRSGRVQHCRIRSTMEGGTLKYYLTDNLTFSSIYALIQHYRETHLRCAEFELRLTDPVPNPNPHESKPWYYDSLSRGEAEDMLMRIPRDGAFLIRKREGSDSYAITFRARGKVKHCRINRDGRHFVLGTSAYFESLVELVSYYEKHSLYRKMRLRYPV

SH2 and PTB domains = biological target: T2, SH2 and PTB domains (Homo sapiens, UniProt P46109); test: In-house protein microarrays (with or without 5 mM DTT), protein named per line; assay type: binding; conditions: protein CRKL
T2 construct: thioredoxin; made in house; host or cells: BL21(DE3)pLysS E. coli
T2 sequence (P46109 whole entry, the tested form may be a part): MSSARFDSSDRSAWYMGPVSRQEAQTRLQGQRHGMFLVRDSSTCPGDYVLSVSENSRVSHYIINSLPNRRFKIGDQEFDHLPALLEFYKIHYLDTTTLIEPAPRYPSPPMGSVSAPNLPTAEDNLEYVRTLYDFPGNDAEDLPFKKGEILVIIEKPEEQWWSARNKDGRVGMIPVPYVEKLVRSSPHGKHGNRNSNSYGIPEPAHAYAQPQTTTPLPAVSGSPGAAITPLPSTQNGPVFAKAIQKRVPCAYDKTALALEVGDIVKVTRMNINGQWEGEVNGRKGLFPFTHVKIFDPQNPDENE
In short: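 Recombinant domains (~40 µM) spotted in duplicate on aldehyde slides, quenched 1 h at room temperature in HEPES/KCl/Tween-20 buffer pH 7.8 with 5 mM DTT and 1% BSA, then probed with rhodamine-labeled peptide. Thioredoxin-subtracted mean fluorescence fitted for KD.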

HCK SH2 domain = biological target: T3, HCK SH2 domain (Homo sapiens, UniProt P08631); test: FP saturation binding assay; conditions: protein HCK, high-confidence ErbB interactions, mean of replicate hits
T3 construct: 93 SH2 and 2 PTB domain-containing constructs; 6X His; thioredoxin; made in house; host or cells: E. coli BL21(DE3)pLysS
T3 sequence (P08631 144-241 limits assumed): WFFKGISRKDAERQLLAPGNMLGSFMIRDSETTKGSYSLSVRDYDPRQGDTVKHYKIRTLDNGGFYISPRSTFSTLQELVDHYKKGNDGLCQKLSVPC
In short: as §1

PIK3R1-C SH2 domain = biological target: T4, PIK3R1-C SH2 domain (Homo sapiens, UniProt P27986); test: FP saturation binding assay; conditions: protein PIK3R1-C, high-confidence ErbB interactions, mean of replicate hits
T4 construct: 6X His; thioredoxin; made in house; host or cells: E. coli BL21(DE3)pLysS
T4 sequence (P27986 624-718 limits assumed): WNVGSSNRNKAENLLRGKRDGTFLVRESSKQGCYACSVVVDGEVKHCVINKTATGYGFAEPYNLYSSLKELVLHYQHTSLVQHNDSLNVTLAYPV
In short: as §1

ABL2 SH2 domain = biological target: T5, ABL2 SH2 domain (Homo sapiens, UniProt P42684); test: FP saturation binding assay; conditions: protein ABL2, high-confidence ErbB interactions, mean of replicate hits
T5 construct: 93 SH2 and 2 PTB domain-containing constructs; 6X His; thioredoxin; made in house; host or cells: E. coli BL21(DE3)pLysS
T5 sequence (P42684 173-263 limits assumed): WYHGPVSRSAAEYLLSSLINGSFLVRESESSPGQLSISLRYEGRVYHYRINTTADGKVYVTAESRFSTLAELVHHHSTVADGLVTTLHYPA
In short: as §1

SRC SH2 domain = biological target: T6, SRC SH2 domain (Homo sapiens, UniProt P12931); test: FP saturation binding assay; conditions: protein SRC; high-confidence ErbB interactions; mean of replicate hits
T6 construct: between the c-Src SH2 domain and ErbB1 in our FP assay; 6X His; thioredoxin; made in house; host or cells: E. coli BL21(DE3)pLysS
T6 sequence (P12931 151-248 limits assumed): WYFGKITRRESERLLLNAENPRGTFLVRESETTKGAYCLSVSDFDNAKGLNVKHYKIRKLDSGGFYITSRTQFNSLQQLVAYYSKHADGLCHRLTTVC
In short: as §1

T1 sequence (P09769 144-241 limits assumed): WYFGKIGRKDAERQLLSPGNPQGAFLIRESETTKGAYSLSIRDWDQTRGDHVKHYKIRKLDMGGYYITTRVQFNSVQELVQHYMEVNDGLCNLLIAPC

CC(C)C[C@H](NC(=O)[C@H](CC(N)=O)NC(=O)[C@@H](N)CC(=O)O)C(=O)N[C@@H](Cc1ccc(O)cc1)C(=O)N[C@@H](Cc1ccc(OP(=O)(O)O)cc1)C(=O)N[C@@H](Cc1c[nH]c2ccccc12)C(=O)N[C@@H](CC(=O)O)C(=O)N[C@@H](CCC(N)=O)C(=O)N[C@@H](CC(=O)O)C(=O)N1CCC[C@H]1C(=O)N1CCC[C@H]1C(=O)N[C@@H](CCC(=O)O)C(=O)N[C@@H](CC(=O)O)C(=O)O [ErbB2 1222 13-mer] (HELM PEPTIDE1{D.N.L.Y.[O=C([C@H](Cc1ccc(OP(=O)(O)O)cc1)N[*:1])[*:2]].W.D.Q.D.P.P.E.D}$$$$V2.0)
Kd (FGR SH2 domain): 8.34 µM | Kd [1]: 6.4 µM

CC(C)C[C@H](NC(=O)[C@@H]1CCCN1C(=O)[C@H](C)NC(=O)[C@@H](NC(=O)[C@H](Cc1ccc(OP(=O)(O)O)cc1)NC(=O)CNC(=O)[C@H](CC(=O)O)NC(=O)[C@@H](NC(=O)[C@@H](N)CCC(=O)O)[C@@H](C)O)C(C)C)C(=O)N[C@H](C(=O)N[C@@H](CS)C(=O)N[C@@H](CO)C(=O)N[C@@H](CC(=O)O)C(=O)O)[C@@H](C)O [ErbB2 pY1127]
Kd (SH2 and PTB domains; PM assay replicate # 39336, array fabrication # 39329): 4.80 µM | Kd (SH2 and PTB domains; PM assay replicate # 39337, array fabrication # 39329): 0.64 µM

CSCC[C@H](NC(=O)[C@H](Cc1ccc(OP(=O)(O)O)cc1)NC(=O)[C@H](CCC(=O)O)NC(=O)[C@H](Cc1ccc(O)cc1)NC(=O)CNC(=O)[C@@H](N)CC(C)C)C(=O)N[C@@H](CC(=O)O)C(=O)N[C@H](C(=O)NCC(=O)N[C@@H](CO)C(=O)N[C@@H](CC(=O)O)C(=O)N[C@@H](CC(C)C)C(=O)N[C@@H](CC(=O)O)C(=O)O)C(C)C [ErbB3 1224 13-mer] (HELM PEPTIDE1{L.G.Y.E.[O=C([C@H](Cc1ccc(OP(=O)(O)O)cc1)N[*:1])[*:2]].M.D.V.G.S.D.L.D}$$$$V2.0)
Kd (HCK SH2 domain): 10.9 µM

CSCC[C@H](NC(=O)[C@H](CCC(=O)O)NC(=O)[C@H](CCC(=O)O)NC(=O)[C@H](Cc1ccc(OP(=O)(O)O)cc1)NC(=O)CNC(=O)[C@H](CCC(N)=O)NC(=O)[C@H](CCC(=O)O)NC(=O)[C@@H](N)CO)C(=O)N[C@@H](CCCNC(=N)N)C(=O)N[C@@H](C)C(=O)N[C@@H](Cc1ccccc1)C(=O)N[C@@H](CCC(N)=O)C(=O)N[C@@H](CC(=O)O)C(=O)O [ErbB3 1289 13-mer] (HELM PEPTIDE1{S.E.Q.G.[O=C([C@H](Cc1ccc(OP(=O)(O)O)cc1)N[*:1])[*:2]].E.E.M.R.A.F.Q.D}$$$$V2.0)
Kd (PIK3R1-C SH2 domain): 0.2 µM

CSCC[C@H](NC(=O)[C@H](Cc1ccc(OP(=O)(O)O)cc1)NC(=O)CNC(=O)[C@H](CCC(=O)O)NC(=O)[C@H](CCC(=O)O)NC(=O)[C@H](CC(=O)O)NC(=O)[C@H](CC(C)C)NC(=O)[C@H](CCC(=O)O)NC(=O)CNC(=O)[C@H](CCCNC(=N)N)NC(=O)[C@@H]1CCCN1)C(=O)N[C@H](C(=O)N1CCC[C@H]1C(=O)N[C@@H](CCSC)C(=O)N[C@@H](CCCNC(=N)N)C(=O)N[C@@H](CC(=O)O)C(=O)N[C@@H](CCCCN)C(=O)N[C@@H](CC(=O)O)C(=O)O)[C@@H](C)O [ErbB4 1150 18-mer] (HELM PEPTIDE1{P.R.G.E.L.D.E.E.G.[O=C([C@H](Cc1ccc(OP(=O)(O)O)cc1)N[*:1])[*:2]].M.T.P.M.R.D.K.D}$$$$V2.0)
Kd (ABL2 SH2 domain): 8.25 µM

CC(C)C[C@H](NC(=O)[C@H](Cc1ccc(OP(=O)(O)O)cc1)NC(=O)[C@H](CC(C)C)NC(=O)[C@@H]1CCCN1C(=O)[C@H](CCC(=O)O)NC(=O)[C@H](CC(N)=O)NC(=O)[C@@H](NC(=O)[C@H](Cc1ccc(O)cc1)NC(=O)[C@H](CCC(=O)O)NC(=O)[C@H](CC(=O)O)NC(=O)[C@@H](N)CCC(=O)O)C(C)C)C(=O)N[C@@H](CC(N)=O)C(=O)N[C@H](C(=O)N[C@@H](Cc1ccccc1)C(=O)N[C@@H](C)C(=O)N[C@@H](CC(N)=O)C(=O)N[C@H](C(=O)N[C@@H](CC(=O)O)C(=O)O)[C@@H](C)O)[C@@H](C)O [ErbB4 1208 18-mer] (HELM PEPTIDE1{E.D.E.Y.V.N.E.P.L.[O=C([C@H](Cc1ccc(OP(=O)(O)O)cc1)N[*:1])[*:2]].L.N.T.F.A.N.T.D}$$$$V2.0)
Kd (SRC SH2 domain): 5.84 µM

CC[C@H](C)[C@H](NC(=O)[C@H](CC(N)=O)NC(=O)[C@H](CC(N)=O)NC(=O)[C@H](CCCCN)NC(=O)[C@H](CC(C)C)NC(=O)[C@H](Cc1ccc(OP(=O)(O)O)cc1)NC(=O)[C@H](CCC(=O)O)NC(=O)[C@H](C)NC(=O)[C@H](CCCCN)NC(=O)CNC(=O)[C@H](CC(C)C)NC(=O)[C@@H](NC(=O)[C@H](CC(N)=O)NC(=O)[C@H](C)NC(=O)[C@@H](N)Cc1ccccc1)[C@@H](C)O)C(=O)N[C@@H](CC(C)C)C(=O)N[C@@H](CO)C(=O)N[C@@H](CC(=O)O)C(=O)O [ErbB4 pY1221 (18-mer)] (HELM PEPTIDE1{F.A.N.T.L.G.K.A.E.[O=C([C@H](Cc1ccc(OP(=O)(O)O)cc1)N[*:1])[*:2]].L.K.N.N.I.L.S.D}$$$$V2.0)
Kd (SH2 and PTB domains; PM assay replicate # 39307, array fabrication # 39286): 0.11 µM
